The results in this text go back to patent publication US20110044938A1 (NYCOMED GMBH, priority 2006, published 2011).

SMILES strings stand for the structures.

The subject of experiment [1] is subclones of RKO colon adenocarcinoma cells (RKOp27 or RKOp21) arrested by Ponasterone A. The experiment is described as follows: Alamar Blue cell viability assay, cell cycle specific mode of action: cells arrested by ectopic p27Kip1 induced by Ponasterone A versus proliferating cells. The class given is cell-based. To be noted: Homo sapiens, RKO p27 induced (arrested) cells, 10 μM Ponasterone A, 72 hours, value = class bound given in Table A, read-out: −logIC50 RKO p27 induced (arrested) (converted). The essentials:
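Viability of proliferating versus Ponasterone A (10 μM)-arrested RKOp27/RKOp21 cells after 72 h compound exposure at 37° C, in quadruplicate. Read-out is Alamar Blue fluorescence (544/590 nm) normalised to untreated cells = 100%; values as −log IC50.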
A general note: Resazurin is reduced to fluorescent resorufin, in cell work by metabolically active cells.

Experiment [2] has as its system RKO (RKOp27) human colon adenocarcinoma cells. The experiment is described as follows: Alamar Blue cell viability assay, anti-proliferative/cytotoxic activity on proliferating RKO subclones. The experiment is classed as cell-based. The following applies: RKOp27, 72 h, RKO p27 uninduced (proliferating) cells, value = class bound given in Table A, read-out: −logIC50 RKO p27 uninduced (proliferating) (converted). Summed up:
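Alamar Blue fluorescence (ex 544, em 590 nm) after 72 h compound exposure at 37 °C, 5% CO2, normalised to untreated controls set at 100%. Cells were seeded at 5000 per well and dosed 24 h later with serial semi-logarithmic dilutions in 10% FCS DMEM, four replicates each. −log IC50 [mol/l] was derived from concentration-effect curves.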

Consider `CCNC(=O)OC[C@@H]1CCc2c(sc(NC(=O)/C=C/c3cccnc3)c2C#N)C1` [Example 9b, (R)-Ethyl-carbamic acid 3-cyano-2-((E)-3-pyridin-3-yl-allanoylamino)-4,5,6,7-tetrahydro-benzo[b]thiophen-6-ylmethyl ester], for which the IC50 is at least 100000 nM in experiment [1] and at most 501 nM in experiment [2].

Consider `COc1cccc(CCC(=O)Nc2sc3c(c2C#N)CCC(OC(=O)NCc2cc(C)no2)C3)c1` (stereo not drawn) [Example 230, (3-Methyl-isoxazol-5-ylmethyl)-carbamic acid 3-cyano-2-[3-(3-methoxy-phenyl)-propanoylamino]-4,5,6,7-tetrahydro-benzo[b]thiophen-6-yl ester], for which the results for the IC50 in experiment [1] and in experiment [2] were at least 100000 nM and 501 to 2000 nM, respectively.

As for `CCCNC(=O)OCC1CCc2c(sc(NC(=O)/C=C/c3cccnc3)c2C#N)C1` (stereo not drawn) [Example 103, Propyl-carbamic acid 3-cyano-2-((E)-3-pyridin-3-yl-allanoylamino)-4,5,6,7-tetrahydro-benzo[b]thiophen-6-ylmethyl ester], the IC50 in experiment [1] is at least 100000 nM; in experiment [2], 501 to 2000 nM.

For `CC(CC(=O)Nc1sc2c(c1C#N)CCC(OC(=O)OCc1nccs1)C2)c1ccccc1` (stereo not drawn) [Example 368, Carbonic acid 3-cyano-2-(3-phenyl-butanoylamino)-4,5,6,7-tetrahydro-benzo[b]thiophen-6-yl ester thiazol-2-ylmethyl ester], the results for the IC50 in experiment [1] and in experiment [2] were at least 50100 nM and 501 to 2000 nM, respectively.

In the case of `CCOc1ccccc1CCC(=O)Nc1sc2c(c1C#N)CCC(COC(=O)N1CCOCC1)C2` (stereo not drawn) [Example 216, Morpholine-4-carboxylic acid 3-cyano-2-[3-(2-ethoxy-phenyl)-propanoylamino]-4,5,6,7-tetrahydro-benzo[b]thiophen-6-ylmethyl ester], the IC50 is at least 100000 nM in experiment [1] and at most 501 nM in experiment [2].

Regarding `C=CCN(C)C(=O)OCC1CCc2c(sc(NC(=O)/C=C/c3cccnc3)c2C#N)C1` (stereo not drawn) [Example 112, Allyl-methyl-carbamic acid 3-cyano-2-((E)-3-pyridin-3-yl-allanoylamino)-4,5,6,7-tetrahydro-benzo[b]thiophen-6-ylmethyl ester], the IC50 in experiment [1] is at least 100000 nM; in experiment [2], at most 501 nM.

On to `CCOc1ccccc1CCC(=O)Nc1sc2c(c1C#N)CCC(OC(=O)NCc1cncn1C)C2` (stereo not drawn) [Example 167, (3-Methyl-3H-imidazol-4-ylmethyl)-carbamic acid 3-cyano-2-[3-(2-ethoxy-phenyl)-propanoylamino]-4,5,6,7-tetrahydro-benzo[b]thiophen-6-yl ester], for which the IC50 in experiment [1] is at least 10000 nM; in experiment [2], at most 501 nM.

Consider `CCOc1ccccc1/C=C/C(=O)Nc1sc2c(c1C#N)CCC(OC(=O)OCCOC)C2` (stereo not drawn) [Example 11, Carbonic acid 3-cyano-2-[(E)-3-(2-ethoxy-phenyl)-allanoylamino]-4,5,6,7-tetrahydro-benzo[b]thiophen-6-yl ester 2-methoxy-ethyl ester], for which the figures for the IC50 in experiment [1] and in experiment [2] were at least 100000 nM and at most 501 nM, respectively.

As to `CCOC(=O)OC1CCc2c(sc(NC(=O)/C=C/c3ccccc3OCC)c2C#N)C1` (stereo not drawn) [Example 6, Carbonic acid 3-cyano-2-[(E)-3-(2-ethoxy-phenyl)-allanoylamino]-4,5,6,7-tetrahydro-benzo[b]thiophen-6-yl ester ethyl ester], the IC50 is at least 100000 nM in experiment [1] and 501 to 2000 nM in experiment [2].

In the case of `Cc1nn(C)cc1CNC(=O)OCC1CCc2c(sc(NC(=O)CC(C)c3ccccc3)c2C#N)C1` (stereo not drawn) [Example 320, (1,3-Dimethyl-1H-pyrazol-4-ylmethyl)-carbamic acid 3-cyano-2-(3-phenyl-butanoylamino)-4,5,6,7-tetrahydro-benzo[b]thiophen-6-ylmethyl ester], the values for the IC50 in experiment [1] and in experiment [2] were at least 10000 nM and at most 501 nM, respectively.

With `N#Cc1c(NC(=O)/C=C/c2cccnc2)sc2c1CCC(OC(=O)N1CCC(O)C1)C2` (stereo not drawn) [Example 76, 3-Hydroxy-pyrrolidine-1-carboxylic acid 3-cyano-2-((E)-3-pyridin-3-yl-allanoylamino)-4,5,6,7-tetrahydro-benzo[b]thiophen-6-yl ester], the IC50 in experiment [1] was at least 100000 nM; in experiment [2] it was at most 501 nM.

As to `CC(CC(=O)Nc1sc2c(c1C#N)CCC(OC(=O)NCC1CCCO1)C2)c1ccccc1` (stereo not drawn) [Example 297, (Tetrahydro-furan-2-ylmethyl)-carbamic acid 3-cyano-2-(3-phenyl-butanoyl-amino)-4,5,6,7-tetrahydro-benzo[b]thiophen-6-yl ester], the values for the IC50 in experiment [1] and in experiment [2] were at least 10000 nM and 501 to 2000 nM, respectively.

`N#Cc1c(NC(=O)/C=C/c2cccnc2)sc2c1CCC(OC(=O)N1CCOCC1)C2` (stereo not drawn) [Example 61, Morpholine-4-carboxylic acid 3-cyano-2-((E)-3-pyridin-3-yl-allanoylamino)-4,5,6,7-tetrahydro-benzo[b]thiophen-6-yl ester]: the IC50 in experiment [1] was at least 100000 nM; in experiment [2], at most 501 nM.

Consider `COC(=O)[C@@H]1CCCN1C(=O)OCC1CCc2c(sc(NC(=O)/C=C/c3cccnc3)c2C#N)C1` (stereo partly drawn) [Example 136, 2-(S)-Pyrrolidine-1,2-dicarboxylic acid 1-[3-cyano-2-((E)-3-pyridin-3-yl-allanoylamino)-4,5,6,7-tetrahydro-benzo[b]thiophen-6-ylmethyl] ester 2-methyl ester], for which the IC50 in experiment [1] was at least 100000 nM; in experiment [2] it was 501 to 2000 nM.

`COc1cccc(C(C)CC(=O)Nc2sc3c(c2C#N)CCC(OC(=O)NCc2cncn2C)C3)c1` (stereo not drawn) [Example 272, (3-Methyl-3H-imidazol-4-ylmethyl)-carbamic acid 3-cyano-2-[3-(3-methoxy-phenyl)-butanoylamino]-4,5,6,7-tetrahydro-benzo[b]thiophen-6-yl ester]: the IC50 in experiment [1] was at least 100000 nM; in experiment [2], 501 to 2000 nM.

On to `COc1cccc(CCC(=O)Nc2sc3c(c2C#N)CCC(OC(=O)NCc2ccnn2C)C3)c1` (stereo not drawn) [Example 221, (2-Methyl-2H-pyrazol-3-ylmethyl)-carbamic acid 3-cyano-2-[3-(3-methoxy-phenyl)-propanoylamino]-4,5,6,7-tetrahydro-benzo[b]thiophen-6-yl ester], for which the results for the IC50 in experiment [1] and in experiment [2] were at least 100000 nM and at most 501 nM, respectively.

`N#Cc1c(NC(=O)/C=C/c2cccnc2)sc2c1CCC(COC(=O)N1CCC(O)CC1)C2` (stereo not drawn) [Example 114, 4-Hydroxy-piperidine-1-carboxylic acid 3-cyano-2-((E)-3-pyridin-3-yl-allanoylamino)-4,5,6,7-tetrahydro-benzo[b]thiophen-6-ylmethyl ester]: the results for the IC50 in experiment [1] and in experiment [2] were at least 100000 nM and at most 501 nM, respectively.

As to `Cc1ccncc1/C=C/C(=O)Nc1sc2c(c1C#N)CCC(COC(=O)N(C)C)C2` (stereo not drawn) [Example 129, Dimethyl-carbamic acid 3-cyano-2-[(E)-3-(4-methyl-pyridin-3-yl)-allanoylamino]-4,5,6,7-tetrahydro-benzo[b]thiophen-6-ylmethyl ester], the IC50 in experiment [1] was at least 100000 nM; in experiment [2], at most 501 nM.

As to `CC(CC(=O)Nc1sc2c(c1C#N)CCC(COC(=O)NCCn1ccnc1)C2)c1ccccc1` (stereo not drawn) [Example 310, (2-Imidazol-1-yl-ethyl)-carbamic acid 3-cyano-2-(3-phenyl-butanoyl-amino)-4,5,6,7-tetrahydro-benzo[b]thiophen-6-ylmethyl ester], the IC50 in experiment [1] is at least 10000 nM; in experiment [2] it was 501 to 2000 nM.

For `CNC(=O)OCC1CCc2c(sc(NC(=O)CCc3cccnc3)c2C#N)C1` (stereo not drawn) [Example 162, Methyl-carbamic acid 3-cyano-2-(3-pyridin-3-yl-propanoylamino)-4,5,6,7-tetrahydro-benzo[b]thiophen-6-ylmethyl ester], the results for the IC50 in experiment [1] and in experiment [2] were at least 100000 nM and 501 to 2000 nM, respectively.

On to `CCOc1ccccc1CCC(=O)Nc1sc2c(c1C#N)CCC(OC(=O)N1CCCC1)C2` (stereo not drawn) [Example 208, Pyrrolidine-1-carboxylic acid 3-cyano-2-[3-(2-ethoxy-phenyl)-propanoylamino]-4,5,6,7-tetrahydro-benzo[b]thiophen-6-yl ester], for which the IC50 in experiment [1] is at least 100000 nM; in experiment [2], at most 501 nM.

As to `COc1cccc(C(C)CC(=O)Nc2sc3c(c2C#N)CCC(OC(=O)NCc2cn(C)nc2C)C3)c1` (stereo not drawn) [Example 276, (1,3-Dimethyl-1H-pyrazol-4-ylmethyl)-carbamic acid 3-cyano-2-[3-(3-methoxy-phenyl)-butanoylamino]-4,5,6,7-tetrahydro-benzo[b]thiophen-6-yl ester], the figures for the IC50 in experiment [1] and in experiment [2] were at least 100000 nM and at most 501 nM, respectively.

Regarding `COCC1CCCN1C(=O)OCC1CCc2c(sc(NC(=O)/C=C/c3cccnc3)c2C#N)C1` (stereo not drawn) [Example 89, 2-(Methoxymethyl) pyrrolidine-1-carboxylic acid 3-cyano-2-((E)-3-pyridin-3-yl-allanoylamino)-4,5,6,7-tetrahydro-benzo[b]thiophen-6-ylmethyl ester], the values for the IC50 in experiment [1] and in experiment [2] were at least 100000 nM and at most 501 nM, respectively.

As for `COc1cccc(CCC(=O)Nc2sc3c(c2C#N)CCC(OC(=O)NCc2ccno2)C3)c1` (stereo not drawn) [Example 229, Isoxazol-5-ylmethyl-carbamic acid 3-cyano-2-[3-(3-methoxy-phenyl)-propanoylamino]-4,5,6,7-tetrahydro-benzo[b]thiophen-6-yl ester], the IC50 in experiment [1] was at least 100000 nM; in experiment [2], 501 to 2000 nM.
